Measurements published in patent publication US20050229276A1, “Method of producing cyclamen root tuber and method of proliferating cyclamen using the same” (Tokyo University of Agricultural, priority 2002, published 2005).

System: cyclamen root tuber
Test: Germination and rooting of cut-off root tubers in solid media
Type: in vivo
Parameters: Germination rate / Rooting rate: unit not given here
Details: NAA 0.05 mg/l
Method: The cyclamen root tuber obtained was cut off from the parent body and planted in an experimental plot prepared by adding 30 to 90 g/l of sucrose, NAA and BA to the ⅓ MS medium as shown in Table 4.6 g/l of agar was added to the medium which was then sterilized in an autoclave to prepare a solid medium having a pH of 7.0. The culture test tube was left under illumination for 12 hours a day and in the dark for 12 hours. As a result, the root tubers germinated and rooted while enlarging.

[1] = BA 0.05 mg/l (second 0.05 block, r16), sucrose 30 g/l, 60-th day
[2] = BA 0.05 mg/l (second 0.05 block, r16), sucrose 30 g/l, 97-th day
[3] = BA 0.05 mg/l (second 0.05 block, r16), sucrose 30 g/l, 127-th day
[4] = BA 0.05 mg/l (second 0.05 block, r17), sucrose 50 g/l, 60-th day
[5] = BA 0.05 mg/l (second 0.05 block, r17), sucrose 50 g/l, 97-th day
[6] = BA 0.05 mg/l (second 0.05 block, r17), sucrose 50 g/l, 127-th day
[7] = BA 0.05 mg/l (second 0.05 block, r18), sucrose 70 g/l, 60-th day
[8] = BA 0.05 mg/l (second 0.05 block, r18), sucrose 70 g/l, 97-th day
[9] = BA 0.05 mg/l (second 0.05 block, r18), sucrose 70 g/l, 127-th day
[10] = BA 0.05 mg/l (second 0.05 block, r19), sucrose 90 g/l, 60-th day
[11] = BA 0.05 mg/l (second 0.05 block, r19), sucrose 90 g/l, 97-th day
[12] = BA 0.05 mg/l (second 0.05 block, r19), sucrose 90 g/l, 127-th day
[13] = BA 0.05 mg/l, sucrose 30 g/l, 60-th day
[14] = BA 0.05 mg/l, sucrose 30 g/l, 97-th day
[15] = BA 0.05 mg/l, sucrose 30 g/l, 127-th day
[16] = BA 0.05 mg/l, sucrose 50 g/l, 60-th day
[17] = BA 0.05 mg/l, sucrose 50 g/l, 97-th day
[18] = BA 0.05 mg/l, sucrose 50 g/l, 127-th day
[19] = BA 0.05 mg/l, sucrose 70 g/l, 60-th day
[20] = BA 0.05 mg/l, sucrose 70 g/l, 97-th day
[21] = BA 0.05 mg/l, sucrose 70 g/l, 127-th day
[22] = BA 0.05 mg/l, sucrose 90 g/l, 60-th day
[23] = BA 0.05 mg/l, sucrose 90 g/l, 97-th day
[24] = BA 0.05 mg/l, sucrose 90 g/l, 127-th day
[25] = BA 0.1 mg/l, sucrose 30 g/l, 60-th day
[26] = BA 0.1 mg/l, sucrose 30 g/l, 97-th day
[27] = BA 0.1 mg/l, sucrose 30 g/l, 127-th day
[28] = BA 0.1 mg/l, sucrose 50 g/l, 60-th day
[29] = BA 0.1 mg/l, sucrose 50 g/l, 97-th day
[30] = BA 0.1 mg/l, sucrose 50 g/l, 127-th day
[31] = BA 0.1 mg/l, sucrose 70 g/l, 60-th day
[32] = BA 0.1 mg/l, sucrose 70 g/l, 97-th day
[33] = BA 0.1 mg/l, sucrose 70 g/l, 127-th day
[34] = BA 0.1 mg/l, sucrose 90 g/l, 60-th day
[35] = BA 0.1 mg/l, sucrose 90 g/l, 97-th day
[36] = BA 0.1 mg/l, sucrose 90 g/l, 127-th day
[37] = BA 1.0 mg/l, sucrose 30 g/l, 60-th day
[38] = BA 1.0 mg/l, sucrose 30 g/l, 97-th day
[39] = BA 1.0 mg/l, sucrose 30 g/l, 127-th day
[40] = BA 1.0 mg/l, sucrose 50 g/l, 60-th day
[41] = BA 1.0 mg/l, sucrose 50 g/l, 97-th day
[42] = BA 1.0 mg/l, sucrose 50 g/l, 127-th day
[43] = BA 1.0 mg/l, sucrose 70 g/l, 60-th day
[44] = BA 1.0 mg/l, sucrose 70 g/l, 97-th day
[45] = BA 1.0 mg/l, sucrose 70 g/l, 127-th day
[46] = BA 1.0 mg/l, sucrose 90 g/l, 60-th day
[47] = BA 1.0 mg/l, sucrose 90 g/l, 97-th day
[48] = BA 1.0 mg/l, sucrose 90 g/l, 127-th day

c1ccc(CNc2ncnc3[nH]cnc23)cc1 [BA, benzylaminopurine]
Enlarging ratio [1]: 3.23
Germination rate [1]: 40
Rooting rate [1]: 20
Enlarging ratio [2]: 3.97
Germination rate [2]: 40
Rooting rate [2]: 40
Enlarging ratio [3]: 4.23
Germination rate [3]: 40
Rooting rate [3]: 40
Enlarging ratio [4]: 2.52
Germination rate [4]: 40
Rooting rate [4]: 0
Enlarging ratio [5]: 2.85
Germination rate [5]: 60
Rooting rate [5]: 0
Enlarging ratio [6]: 3.25
Germination rate [6]: 60
Rooting rate [6]: 20
Germination rate [7]: 20
Rooting rate [7]: 20
Germination rate [8]: 40
Rooting rate [8]: 20
Germination rate [9]: 40
Rooting rate [9]: 20
Enlarging ratio [10]: 2.67
Germination rate [10]: 0
Rooting rate [10]: 20
Enlarging ratio [11]: 4.98
Germination rate [11]: 60
Rooting rate [11]: 20
Enlarging ratio [12]: 5.78
Germination rate [12]: 60
Rooting rate [12]: 20
Enlarging ratio [13]: 2.17
Germination rate [13]: 20
Rooting rate [13]: 40
Enlarging ratio [14]: 2.41
Germination rate [14]: 80
Rooting rate [14]: 40
Enlarging ratio [15]: 2.47
Germination rate [15]: 80
Rooting rate [15]: 40
Enlarging ratio [16]: 2.83
Germination rate [16]: 20
Rooting rate [16]: 20
Enlarging ratio [17]: 3.43
Germination rate [17]: 60
Rooting rate [17]: 80
Enlarging ratio [18]: 4.23
Germination rate [18]: 60
Rooting rate [18]: 80
Germination rate [19]: 40
Rooting rate [19]: 0
Germination rate [20]: 40
Rooting rate [20]: 60
Germination rate [21]: 40
Rooting rate [21]: 60
Enlarging ratio [22]: 1.93
Germination rate [22]: 40
Rooting rate [22]: 20
Enlarging ratio [23]: 2.11
Germination rate [23]: 40
Rooting rate [23]: 60
Enlarging ratio [24]: 2.11
Germination rate [24]: 40
Rooting rate [24]: 60
Enlarging ratio [25]: 2.05
Germination rate [25]: 40
Rooting rate [25]: 40
Enlarging ratio [26]: 2.35
Germination rate [26]: 60
Rooting rate [26]: 80
Enlarging ratio [27]: 2.35
Germination rate [27]: 60
Rooting rate [27]: 80
Enlarging ratio [28]: 2.40
Germination rate [28]: 20
Rooting rate [28]: 40
Enlarging ratio [29]: 2.90
Germination rate [29]: 40
Rooting rate [29]: 40
Enlarging ratio [30]: 3.10
Germination rate [30]: 60
Rooting rate [30]: 60
Enlarging ratio [31]: 1.40
Germination rate [31]: 20
Rooting rate [31]: 0
Enlarging ratio [32]: 2.47
Germination rate [32]: 40
Rooting rate [32]: 0
Enlarging ratio [33]: 2.73
Germination rate [33]: 40
Rooting rate [33]: 20
Enlarging ratio [34]: 2.68
Germination rate [34]: 0
Rooting rate [34]: 40
Enlarging ratio [35]: 3.28
Germination rate [35]: 0
Rooting rate [35]: 40
Enlarging ratio [36]: 3.28
Germination rate [36]: 20
Rooting rate [36]: 40
Enlarging ratio [37]: 2.25
Germination rate [37]: 0
Rooting rate [37]: 0
Enlarging ratio [38]: 3.50
Germination rate [38]: 40
Rooting rate [38]: 0
Enlarging ratio [39]: 3.95
Germination rate [39]: 40
Rooting rate [39]: 0
Enlarging ratio [40]: 2.27
Germination rate [40]: 20
Rooting rate [40]: 0
Enlarging ratio [41]: 3.18
Germination rate [41]: 40
Rooting rate [41]: 20
Enlarging ratio [42]: 4.02
Germination rate [42]: 40
Rooting rate [42]: 20
Enlarging ratio [43]: 2.25
Germination rate [43]: 0
Rooting rate [43]: 20
Enlarging ratio [44]: 4.03
Germination rate [44]: 20
Rooting rate [44]: 40
Enlarging ratio [45]: 4.81
Germination rate [45]: 20
Rooting rate [45]: 60
Enlarging ratio [46]: 1.84
Germination rate [46]: 40
Rooting rate [46]: 20
Enlarging ratio [47]: 2.11
Germination rate [47]: 60
Rooting rate [47]: 40
Enlarging ratio [48]: 2.47
Germination rate [48]: 60
Rooting rate [48]: 40
